The target in data set [1] is LRRK2 G2019S (Homo sapiens (Human), UniProt Q5S007, G2019S). The data set can be described thus: LRRK2 G2019S TR-FRET biochemical assay (LRRKtide substrate). Conditions: 134 μM ATP. As for the experimental part:
Materials: • LRRK2 G2019S enzyme • Substrate (LRRKtide) • ATP • TR-FRET dilution buffer • pLRRKtide antibody • 384-well assay plate • DMSO
Enzyme Reaction Conditions • 50 mM Tris pH 7.5, 10 mM MgCl2, 1 mM EGTA, 0.01% Brij-35.2 mM DTT • 5 nM LRRK2 • 134 μM ATP • 60 minute reaction time • 23° C. reaction temperature • 10 μL total reaction volume
Detection Reaction Conditions • 1× TR-FRET dilution buffer • 10 mM EDTA • 2 nM antibody • 23° C. reaction temperature • 10 μL total reaction volume
Compounds were prepared by initially diluting to 1 mM with DMSO. 35 μL of reference compound solution, 35 μL of test compound solution, and 35 μL HPE were successively added to the source plate (384-well assay plate, Labcyte). The plates were centrifuged at 2500 rpm for 1 minute and sealed in foil. POD was used to perform a 3.162 fold serial dilution and 100 nL of reference compound solution, test compound solution, HPE and ZPE were transferred to assay plates. The assay plate was centrifuged at 2500 rpm for 1 minute, and sealed with foil.
To perform the enzyme reaction, 5 μL of LRRKtide substrate and kinase mixture in assay buffer was added to all wells of the assay plate. The plate was centrifuged to concentrate the mixture at the bottom of the wells. The assay plate was incubated at 23° C. for 20 minutes. Following incubation, 5 μL of 2×ATP in assay buffer was added to each well, and plates were centrifuged to concentrate the mixture at the bottom of the wells. The plate was incubated at 23° C. for 60 minutes.
To perform the detection of the reaction, EDTA completely mixed in TR-FRET dilution buffer was added to antibody reagent. 10 μL of detection reagent was added to all wells of each well of the assay plate and the plate was centrifuged to concentrate the mixture at the bottom of the wells. The plate was then incubated at 23° C. for 60 minutes. Plates were read on Perkin Elmer Envision 2104 instrument in TR-FRET mode using 340 nm excitation filter, 520 nm fluorescence emission filter, and 490 or 495 nm terbium emission filter.
For orientation: In TR-FRET formats the signal depends on donor and acceptor labels being close together.

The nature of data set [2]: Metabolic stability in human liver microsomes. The class given is in vitro ADME. Particulars: projected human hepatic clearance scaled from microsomal Clint, well-stirred model. As to the method: Metabolic stability of compounds was evaluated in human liver microsomes (from Corning or XenoTech, LLC) using a 96-well plate assay format. Compounds were incubated at 37° C. at […] final concentration in the microsomal matrix (0.5 mg/mL total protein) in the presence or absence of NADPH cofactor. An NADPH regenerating system, comprised of NADP, MgCl2, isocitric acid, and isocitrate dehydrogenase, was used in the assay. Enzymatic reactions were conducted for 0, 5, 10, 20, 30, or 60 min before termination by addition of acetonitrile containing tolbutamide and labetalol internal standards (100 ng/mL). After shaking for 10 min, plates were subjected to centrifugation (4000 rpm at 4° C.) for 20 min and supernatants were mixed 1:3 with HPLC grade water. Samples were analyzed by LC-MS/MS using appropriate MRM transitions for each analyte and internal standard (IS). Analyte/IS peak area ratios were used to determine percent compound remaining at each time point. Intrinsic clearance (Clint; expressed as mL·min^−1·mg^−1) was calculated from the first order elimination constant (k, min^−1) of test article decay and the volume of the incubation. These values were scaled to intrinsic organ clearance (Clint) using human specific scaling factors (48.8 mg microsomal protein per g liver; 25.7 g liver per kg body weight). Organ Clint was subsequently converted to hepatic clearance (CLhep, mL·min-1·kg-1) using the well-stirred model of hepatic elimination, where Qh is human hepatic blood flow (20.7 mL·min-1·kg-1).
CLhep is the projected human clearance in the liver based on the above in vitro assay. A lower value is indicative of less compound being removed by the liver.
(Liver microsomes are vesicles of endoplasmic reticulum, rich in cytochrome P450 enzymes.)

Bounds are passed on as bounds.

LRRK2 G2019S, sequence (Q5S007 whole entry G2019S): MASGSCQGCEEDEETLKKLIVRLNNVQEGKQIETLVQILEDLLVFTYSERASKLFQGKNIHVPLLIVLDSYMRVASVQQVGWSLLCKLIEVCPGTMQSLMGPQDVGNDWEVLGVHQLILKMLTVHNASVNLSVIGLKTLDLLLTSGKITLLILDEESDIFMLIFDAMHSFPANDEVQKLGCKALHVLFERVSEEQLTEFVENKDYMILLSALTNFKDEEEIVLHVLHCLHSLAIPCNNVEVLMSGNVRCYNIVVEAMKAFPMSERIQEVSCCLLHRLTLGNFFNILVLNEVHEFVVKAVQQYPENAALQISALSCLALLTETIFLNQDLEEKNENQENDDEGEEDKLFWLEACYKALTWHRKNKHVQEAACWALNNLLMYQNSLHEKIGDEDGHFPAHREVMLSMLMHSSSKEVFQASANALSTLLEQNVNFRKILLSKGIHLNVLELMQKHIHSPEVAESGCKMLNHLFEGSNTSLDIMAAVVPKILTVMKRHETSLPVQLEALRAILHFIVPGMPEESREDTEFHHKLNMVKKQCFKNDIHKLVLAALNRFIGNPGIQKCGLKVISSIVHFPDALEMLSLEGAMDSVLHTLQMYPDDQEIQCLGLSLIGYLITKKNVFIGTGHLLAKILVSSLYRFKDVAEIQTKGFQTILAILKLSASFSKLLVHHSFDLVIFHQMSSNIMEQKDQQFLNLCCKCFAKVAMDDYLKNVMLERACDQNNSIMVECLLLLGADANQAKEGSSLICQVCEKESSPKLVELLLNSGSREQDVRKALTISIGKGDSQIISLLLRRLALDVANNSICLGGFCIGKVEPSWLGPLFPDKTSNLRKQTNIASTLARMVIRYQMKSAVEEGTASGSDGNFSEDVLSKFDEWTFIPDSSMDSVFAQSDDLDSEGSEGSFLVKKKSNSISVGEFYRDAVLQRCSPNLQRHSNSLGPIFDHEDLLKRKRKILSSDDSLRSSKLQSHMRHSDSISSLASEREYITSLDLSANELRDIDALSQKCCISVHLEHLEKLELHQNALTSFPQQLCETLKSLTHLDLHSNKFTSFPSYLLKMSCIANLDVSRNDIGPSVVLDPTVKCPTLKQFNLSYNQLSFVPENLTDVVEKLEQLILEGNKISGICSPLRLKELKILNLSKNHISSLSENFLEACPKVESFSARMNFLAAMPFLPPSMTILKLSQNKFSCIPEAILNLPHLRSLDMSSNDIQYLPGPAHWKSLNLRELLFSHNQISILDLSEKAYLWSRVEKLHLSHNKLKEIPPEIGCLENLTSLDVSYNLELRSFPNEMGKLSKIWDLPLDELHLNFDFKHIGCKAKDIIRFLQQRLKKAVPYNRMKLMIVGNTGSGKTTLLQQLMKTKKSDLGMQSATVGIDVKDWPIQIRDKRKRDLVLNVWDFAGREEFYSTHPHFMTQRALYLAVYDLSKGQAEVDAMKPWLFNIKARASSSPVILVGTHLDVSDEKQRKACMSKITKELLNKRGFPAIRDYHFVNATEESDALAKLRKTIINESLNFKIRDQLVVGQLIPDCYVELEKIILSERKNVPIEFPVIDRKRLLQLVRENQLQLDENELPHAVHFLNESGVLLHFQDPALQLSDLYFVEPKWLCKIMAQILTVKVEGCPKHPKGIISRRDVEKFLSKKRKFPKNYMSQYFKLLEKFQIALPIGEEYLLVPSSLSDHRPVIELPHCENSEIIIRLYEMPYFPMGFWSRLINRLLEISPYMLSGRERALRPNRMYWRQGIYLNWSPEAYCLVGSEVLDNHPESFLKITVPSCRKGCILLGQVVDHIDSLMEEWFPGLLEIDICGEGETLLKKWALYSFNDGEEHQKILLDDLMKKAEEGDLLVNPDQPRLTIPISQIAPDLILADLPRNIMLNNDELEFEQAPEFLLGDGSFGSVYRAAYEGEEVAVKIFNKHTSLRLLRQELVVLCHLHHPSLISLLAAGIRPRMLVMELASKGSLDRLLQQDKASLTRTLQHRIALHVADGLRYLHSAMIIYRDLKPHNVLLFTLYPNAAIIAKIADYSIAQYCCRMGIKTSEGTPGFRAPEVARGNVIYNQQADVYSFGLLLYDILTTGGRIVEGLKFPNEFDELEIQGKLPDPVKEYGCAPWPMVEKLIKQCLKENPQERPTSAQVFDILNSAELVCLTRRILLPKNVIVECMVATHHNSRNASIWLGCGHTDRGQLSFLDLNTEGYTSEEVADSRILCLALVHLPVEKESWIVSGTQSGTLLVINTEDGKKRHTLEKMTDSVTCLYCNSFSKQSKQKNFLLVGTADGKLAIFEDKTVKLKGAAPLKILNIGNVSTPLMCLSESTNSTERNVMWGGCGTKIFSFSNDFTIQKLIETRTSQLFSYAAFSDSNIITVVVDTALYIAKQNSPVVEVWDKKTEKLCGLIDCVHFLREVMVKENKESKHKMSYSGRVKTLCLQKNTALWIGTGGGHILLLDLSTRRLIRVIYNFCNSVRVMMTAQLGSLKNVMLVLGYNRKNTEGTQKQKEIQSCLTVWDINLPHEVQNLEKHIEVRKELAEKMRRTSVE

With `CCNc1nc(Nc2cnn(C3CNCCC3(F)F)c2C)ncc1C(F)(F)F` (centres unmarked) [Compound 200], the IC50 (commonly the concentration at which inhibition is half-maximal) in data set [1] (class symbols) was less than 30 nM. `CCNc1nc(Nc2cc(C3(C)CCOC3=O)nn2C2CC2)ncc1Br` (centres unmarked) [Compound 150] yielded an IC50 in data set [1] of 1.22 nM. In addition, in data set [2], the “Human liver microsomes CLhep” value is listed as 11.077 mL/min/kg.

In data set [1] (class symbols), `COc1nc(Nc2cn(C3(C)CCNC3=O)nc2C)ncc1Br` (centres unmarked) [Compound 64A] showed an IC50 of less than 30 nM. As for `N#C[C@@H]1CC1n1cc(Nc2ncc(C(F)(F)F)c(NCC(F)F)n2)c(C2CC2)n1` (single isomer, unassigned) [Compound 210], in data set [1] (class symbols), the concentration for half-maximal inhibition (IC50) was less than 30 nM.

In the case of `CNc1nc(Nc2cn(C3C[C@@H]3C#N)nc2C2CC2)ncc1C(F)(F)F` (single isomer, unassigned) [Compound 208], the half-maximal inhibitory concentration (IC50) in data set [1] (class symbols) is less than 30 nM. Regarding `CCNc1nc(Nc2cc(C3(C)CCn4ncnc43)nn2C2CC2)ncc1C(F)(F)F` (centres unmarked) [Compound 172], the results for the IC50 in data set [1] and in data set [1] (class symbols) were 1.47 nM and less than 30 nM, respectively. Moreover, the “Human liver microsomes CLhep” value in data set [2] was found to be 19.9 mL/min/kg. For the compound `CNc1nc(Nc2cn(C3C[C@H]3C#N)nc2C2CC2)ncc1C(F)(F)F` (single isomer, unassigned) [Compound 209], the IC50 in data set [1] (class symbols) was less than 30 nM.

In data set [1] (class symbols), `CCNc1nc(Nc2cnn3c2CC(n2nccn2)C3)ncc1C(F)(F)F` (centres unmarked) [Compound 54A] had an IC50 of less than 30 nM. For `CCNc1nc(Nc2cn(C3(C)CCOC3=O)nc2C)ncc1C(F)(F)F` (centres unmarked) [Compound 100], in data set [1] (class symbols), the IC50 is less than 30 nM. Take `CNc1nc(Nc2cc(C3(C)CCOC3=O)nn2C2CC2)ncc1C(F)(F)F` (centres unmarked) [Compound 155]: in data set [1], inhibition was half-maximal at 1.95 nM (IC50). The “Human liver microsomes CLhep” value in data set [2] is listed as 5.519 mL/min/kg. In turn, `CCNc1nc(Nc2cn(C3C[C@@H]3C#N)nc2Cl)ncc1C(F)(F)F` (single isomer, unassigned) [Compound 206] registered an IC50 in data set [1] (class symbols) of less than 30 nM. The compound `CCNc1nc(Nc2cnn(C3CCCN(CC(F)F)C3)c2C)ncc1C(F)(F)F` (centres unmarked) [Compound 116] displayed an IC50 in data set [1] (class symbols) of less than 30 nM. The same measure, in the same setting: the value for `CNc1nc(Nc2cnn(C3CCCC3(C)O)c2C)ncc1C(F)(F)F` (centres unmarked) [Compound 30] was 30 to 60 nM. Regarding `[2H]C([2H])([2H])n1nc(C(C)(C)n2nccn2)cc1Nc1ncc(C(F)(F)F)c(NCC)n1` [Compound 34, N4-ethyl-N2-[1-(^2H3)methyl-3-[2-(2H-1,2,3-triazol-2-yl)propan-2-yl]-1H-pyrazol-5-yl]-5-(trifluoromethyl)pyrimidine-2,4-diamine], the “Human liver microsomes CLhep” value in data set [2] is 0.75 mL/min/kg. As to `CNc1nc(Nc2cn(C3(C)CCOC3=O)nc2C)ncc1C(F)(F)F` (centres unmarked) [Compound 119], the IC50 in data set [1] (class symbols) was less than 30 nM.

Take `CCNc1nc(Nc2cn(C3(C)CCOC3=O)nc2C2CC2)ncc1C(F)(F)F` (centres unmarked) [Compound 104]: inhibition in data set [1] was half-maximal at 0.96 nM (IC50). The “Human liver microsomes CLhep” value in data set [2] is on record as 11.59 mL/min/kg.

As to `CCNc1nc(Nc2cn(C3(C)CCOC3=O)nc2C2CC2)ncc1Br` (centres unmarked) [Compound 114], the IC50 in data set [1] is 1.05 nM; in data set [1] (class symbols), less than 30 nM. The “Human liver microsomes CLhep” value in data set [2] came out at 16.508 mL/min/kg.

In data set [1] (class symbols), `CCNc1nc(Nc2cn(C3C[C@H]3C#N)nc2C2CC2)ncc1Br` (single isomer, unassigned) [Compound 215] yielded an IC50 of less than 30 nM. Same read-out and setting: the value for `CNc1nc(Nc2cn(C3(C)CCOC3=O)nc2Cl)ncc1C(F)(F)F` (centres unmarked) [Compound 99] was less than 30 nM; that for `CNc1nc(Nc2cnn(C3CN(C4COC4)CCC3(F)F)c2Cl)ncc1C(F)(F)F` (centres unmarked) [Compound 28] was less than 30 nM; that for `CCNc1nc(Nc2cn(C3C[C@H]3C#N)nc2Cl)ncc1C(F)(F)F` (single isomer, unassigned) [Compound 207] was less than 30 nM.

As for `COc1nc(Nc2cn(C3(C)CCOC3=O)nc2C)ncc1Br` (centres unmarked) [Compound 102], in data set [1] (class symbols), the IC50 was less than 30 nM.

Take `CCNc1nc(Nc2cnn3c2CC(C#N)C3)ncc1C(F)(F)F` (centres unmarked) [Compound 52A]: in data set [1] (class symbols), the half-inhibitory concentration (IC50) is less than 30 nM.

As to `CNc1nc(Nc2cn(C(C)(C)c3ncn(C)n3)nc2C)ncc1C(F)(F)F` [Compound 218], in data set [2], the “Human liver microsomes CLhep” value amounted to 0 mL/min/kg. Compound `CCN1CCC(F)(F)C(n2ncc(Nc3ncc(C(F)(F)F)c(NC)n3)c2Cl)C1` (centres unmarked) [Compound 202] gave an IC50 in data set [1] (class symbols) of less than 30 nM.

The compound `CCNc1nc(Nc2cn(C3C[C@@H]3C#N)nc2C2CC2)ncc1Br` (single isomer, unassigned) [Compound 214] showed an IC50 in data set [1] (class symbols) of less than 30 nM. Consider `Cc1nn(C2(C)CCOC2=O)cc1Nc1ncc(C(F)(F)F)c(C2CC2)n1` (centres unmarked) [Compound 103], for which the IC50 in data set [1] (class symbols) is less than 30 nM.

In data set [1] (class symbols), `CCNc1nc(Nc2cn(C3(C)CCOC3=O)nc2Cl)ncc1C(F)(F)F` (centres unmarked) [Compound 117] displayed an IC50 of less than 30 nM.
